For ten molecules, IC50 results are on record in patent US11034672B1, “Tyrosine kinase inhibitor compositions, methods of making and methods of use” (Black Diamond Therapeutics, Inc., priority 2018, dated 2021).

Common to all, as to format: cell-based
Assay [1] deals with T1, EGFR WT (Homo sapiens, UniProt P00533). Put plainly: Activity for inhibiting EGFR (Table A), EGFR WT. The following applies: read-out: EGFR WT, potency code (IC50).
In assay [2] the target is T2, EGFR V3 (Homo sapiens, UniProt P00533, DELINS30-297G).
T2 construct: expressed in transfected cells; host or cells: BaF3 (murine pro-B), retroviral pMXs-IRES-Blasticidin
Put plainly: Activity for inhibiting EGFR (Table A), EGFR V3 (EGFR-Viii). The following applies: read-out: EGFR V3, potency code (IC50).

Assay [3] has as its target T3, HER2 WT (Homo sapiens, UniProt P04626). Put plainly: Activity for inhibiting HER2 (Table B), HER2 WT.
For assay [4], the target named is T4, HER2 S310F (Homo sapiens, UniProt P04626, S310F).
T4 construct: expressed in transfected cells; host or cells: BaF3 (murine pro-B)
Put plainly: Activity for inhibiting HER2 (Table B), HER2 S310F. The following applies: read-out: HER2 S310F, potency code (IC50). As to the method: (§1) EC50 values were determined with the same application.

Assay [5] concerns the target T5, HER2 YVMA (Homo sapiens, UniProt P04626, INS775YVMA).
T5 construct: expressed in transfected cells; host or cells: BaF3 (murine pro-B)
Put plainly: Activity for inhibiting HER2 (Table B), HER2 YVMA. The note with it: read-out: HER2 YVMA, potency code (IC50). The method, then:
as §1

For assay [6], the target named is T1, EGFR WT. Put plainly: BaF3 cell proliferation assay, EGFR WT (Table A). The note with it: potency code, 3 days, CellTiterGlo, read-out: EGFR WT (Activity for Inhibiting EGFR). The essentials:
(§2)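 Steps: HEK 293T transfected with pMXs-IRES-Blasticidin kinase vector plus Gag-Pol and VSV-G; virus harvested at 24 and 48 hrs; BaF3 infected twice by centrifugation, Blasticidin-selected, then grown without IL-3. Proliferation EC50 measured.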

The target of assay [7] is T2, EGFR V3. Put plainly: BaF3 cell proliferation assay, EGFR V3 (Table A). The note with it: potency code, 3 days, CellTiterGlo, read-out: EGFR V3 (Activity for Inhibiting EGFR). The essentials: as §2
A general note: Cellular ATP, detected with luciferase, serves as a proxy for viable cell number.

Assay [8] deals with T3, HER2 WT. Put plainly: BaF3 cell proliferation assay, HER2 WT (Table B). The note with it: potency code, 3 days, CellTiterGlo, read-out: HER2 WT (Activity for Inhibiting HER2).
In assay [9] the target is T4, HER2 S310F. Put plainly: BaF3 cell proliferation assay, HER2 S310F (Table B). The note with it: potency code, 3 days, CellTiterGlo, read-out: HER2 S310F (Activity for Inhibiting HER2).
Assay [10] concerns the target T5, HER2 YVMA. Put plainly: BaF3 cell proliferation assay, HER2 YVMA (Table B). The following applies: potency code, 3 days, CellTiterGlo, read-out: HER2 YVMA (Activity for Inhibiting HER2).
Assay [11] concerns the target T6, EGFR NPH (Homo sapiens, UniProt P00533, DUP771-773).
T6 construct: expressed in transfected cells; host or cells: BaF3 (murine pro-B), retroviral pMXs-IRES-Blasticidin
Put plainly: Activity for inhibiting EGFR (Table A), EGFR NPH. The following applies: read-out: EGFR NPH, potency code (IC50).

Assay [12] concerns the target T7, EGFR SVD (Homo sapiens, UniProt P00533, DUP768-770).
T7 construct: expressed in transfected cells; host or cells: BaF3 (murine pro-B), retroviral pMXs-IRES-Blasticidin
Put plainly: Activity for inhibiting EGFR (Table A), EGFR SVD. The following applies: read-out: EGFR SVD, potency code (IC50).

In assay [13] the target is T6, EGFR NPH. Put plainly: BaF3 cell proliferation assay, EGFR NPH (Table A). The following applies: potency code, 3 days, CellTiterGlo, read-out: EGFR NPH (Activity for Inhibiting EGFR). The method, then:
(§3) Retroviral Production: EGFR mutants were subcloned into pMXs-IRES-Blasticidin (RTV-016, Cell Biolabs, San Diego, Calif.). Retroviral expression vector retrovirus was produced by transient transfection of HEK 293T cells with the retroviral EGFR mutant expression vector pMXs-IRES-Blasticidin (RTV-016, Cell Biolabs), pCMV-Gag-Pol vector and pCMV-VSV-G-Envelope vector. Briefly, HEK 293T/17 cells were plated in 100 mm collagen coated plate (354450, Corning Life Sciences, Tewksbury, Mass.) (4×10^5 per plate) and incubated overnight. The next day, retroviral plasmids (3 μg of EGFR mutant, 1.0 μg of pCMV-Gag-Pol and 0.5 μg pCMV-VSV-G) were mixed in 500 μl of Optimem (31985, Life Technologies). The mixture was incubated at room temperature for 5 min and then added to Optimem containing transfection reagent Lipofectamine (11668, Invitrogen) and incubated for 20 minutes. Mixture was then added dropwise to HEK 293T cells. The next day the medium was replaced with fresh culture medium and retrovirus was harvested @ 24 and 48 hrs.
(§4) Generation of EGFR mutant stable cell lines: BaF3 cells (1.5E5 cells) were infected with 1 ml of viral supernatant supplemented with 8 μg/ml polybrene by centrifuging for 30 min at 1000 rpm. Cells were placed in a 37° C. incubator overnight. Cells were then spun for 5 minutes to pellet the cells. Supernatant was removed and cells re-infected a fresh 1 ml of viral supernatant supplemented with 8 μg/ml polybrene by centrifuging for 30 min at 1000 rpm. Cells were placed in 37° C. incubator overnight. […] After 48 hours cells were selected for retroviral infection in 10 μg/ml Blasticidin for one week. Blasticidin resistant populations were washed twice in phosphate buffered saline before plating in media lacking IL-3 to select for IL-3 independent growth.
as §1

Assay [14] addresses T7, EGFR SVD. Put plainly: BaF3 cell proliferation assay, EGFR SVD (Table A). The following applies: potency code, 3 days, CellTiterGlo, read-out: EGFR SVD (Activity for Inhibiting EGFR). The method, then: as §3, §4, §1
The mark [15] stands for this setting: Table B, read-out: HER2 WT, potency code (IC50).
The mark [16] stands for this setting: text lists of compounds, read-out: IC50 value for inhibiting wild-type HER2.

Molecules are shown by their SMILES.

T1 sequence (P00533 25-1210 N540K): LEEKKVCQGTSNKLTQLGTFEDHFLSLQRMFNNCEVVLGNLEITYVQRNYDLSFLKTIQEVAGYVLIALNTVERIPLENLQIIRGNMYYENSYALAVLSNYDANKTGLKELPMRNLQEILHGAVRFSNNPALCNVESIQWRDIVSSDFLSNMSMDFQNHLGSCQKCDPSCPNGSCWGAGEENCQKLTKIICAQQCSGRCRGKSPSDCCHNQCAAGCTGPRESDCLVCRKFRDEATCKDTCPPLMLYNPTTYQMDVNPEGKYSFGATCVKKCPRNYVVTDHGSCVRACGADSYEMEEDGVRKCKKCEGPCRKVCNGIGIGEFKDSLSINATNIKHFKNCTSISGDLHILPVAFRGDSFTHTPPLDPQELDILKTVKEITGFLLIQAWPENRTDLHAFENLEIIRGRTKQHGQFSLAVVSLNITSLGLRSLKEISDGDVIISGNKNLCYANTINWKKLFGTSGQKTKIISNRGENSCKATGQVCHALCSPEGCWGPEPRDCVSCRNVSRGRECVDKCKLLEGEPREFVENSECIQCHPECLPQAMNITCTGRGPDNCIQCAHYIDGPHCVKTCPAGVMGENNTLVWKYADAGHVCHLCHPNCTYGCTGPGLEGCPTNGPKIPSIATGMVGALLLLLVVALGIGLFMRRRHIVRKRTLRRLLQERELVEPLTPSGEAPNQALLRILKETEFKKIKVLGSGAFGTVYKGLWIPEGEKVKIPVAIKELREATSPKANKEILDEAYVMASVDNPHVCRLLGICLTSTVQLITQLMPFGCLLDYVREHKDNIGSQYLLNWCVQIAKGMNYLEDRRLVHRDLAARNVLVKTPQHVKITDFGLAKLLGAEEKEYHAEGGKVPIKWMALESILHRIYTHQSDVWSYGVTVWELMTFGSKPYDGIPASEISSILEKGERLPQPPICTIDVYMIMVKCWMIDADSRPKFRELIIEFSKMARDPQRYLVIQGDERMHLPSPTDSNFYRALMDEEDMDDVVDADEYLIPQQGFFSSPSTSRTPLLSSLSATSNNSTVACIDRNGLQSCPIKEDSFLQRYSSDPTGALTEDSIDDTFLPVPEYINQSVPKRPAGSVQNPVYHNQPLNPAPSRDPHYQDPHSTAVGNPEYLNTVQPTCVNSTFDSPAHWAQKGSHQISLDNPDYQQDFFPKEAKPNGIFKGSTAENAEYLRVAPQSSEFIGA
T5 sequence (P04626 with tags, fused parts or gaps INS775YVMA): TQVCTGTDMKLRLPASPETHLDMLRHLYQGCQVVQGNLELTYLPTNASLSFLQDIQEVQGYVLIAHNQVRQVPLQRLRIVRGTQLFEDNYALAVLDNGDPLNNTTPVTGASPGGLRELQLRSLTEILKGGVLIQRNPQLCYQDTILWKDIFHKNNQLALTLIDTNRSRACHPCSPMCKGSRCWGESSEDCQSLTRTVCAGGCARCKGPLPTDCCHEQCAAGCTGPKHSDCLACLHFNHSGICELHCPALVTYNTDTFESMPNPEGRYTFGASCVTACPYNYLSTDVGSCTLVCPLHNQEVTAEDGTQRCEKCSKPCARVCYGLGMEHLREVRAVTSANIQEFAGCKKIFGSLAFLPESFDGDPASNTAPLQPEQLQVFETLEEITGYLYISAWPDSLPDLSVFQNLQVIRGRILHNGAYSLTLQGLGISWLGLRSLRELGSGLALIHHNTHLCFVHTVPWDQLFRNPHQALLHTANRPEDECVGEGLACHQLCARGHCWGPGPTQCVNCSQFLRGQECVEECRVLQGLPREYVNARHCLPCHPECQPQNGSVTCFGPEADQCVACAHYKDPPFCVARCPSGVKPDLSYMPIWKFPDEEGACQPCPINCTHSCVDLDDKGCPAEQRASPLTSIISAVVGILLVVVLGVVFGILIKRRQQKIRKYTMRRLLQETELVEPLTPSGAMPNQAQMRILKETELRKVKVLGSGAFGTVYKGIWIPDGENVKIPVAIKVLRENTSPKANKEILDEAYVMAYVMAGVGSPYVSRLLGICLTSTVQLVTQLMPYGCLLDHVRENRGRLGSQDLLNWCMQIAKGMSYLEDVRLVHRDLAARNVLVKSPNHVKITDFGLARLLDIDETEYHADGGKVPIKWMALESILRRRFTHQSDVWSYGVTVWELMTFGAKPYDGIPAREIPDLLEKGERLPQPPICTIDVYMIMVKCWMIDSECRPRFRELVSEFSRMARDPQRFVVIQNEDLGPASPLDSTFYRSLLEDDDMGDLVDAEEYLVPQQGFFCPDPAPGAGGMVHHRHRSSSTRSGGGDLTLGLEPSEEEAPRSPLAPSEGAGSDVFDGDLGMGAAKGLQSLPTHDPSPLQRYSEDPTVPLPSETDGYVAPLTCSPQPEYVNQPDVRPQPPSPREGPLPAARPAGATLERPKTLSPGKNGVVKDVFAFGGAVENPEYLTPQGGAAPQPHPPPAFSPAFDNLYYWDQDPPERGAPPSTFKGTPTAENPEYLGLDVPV
T7 sequence (P00533 with tags, fused parts or gaps DUP768-770): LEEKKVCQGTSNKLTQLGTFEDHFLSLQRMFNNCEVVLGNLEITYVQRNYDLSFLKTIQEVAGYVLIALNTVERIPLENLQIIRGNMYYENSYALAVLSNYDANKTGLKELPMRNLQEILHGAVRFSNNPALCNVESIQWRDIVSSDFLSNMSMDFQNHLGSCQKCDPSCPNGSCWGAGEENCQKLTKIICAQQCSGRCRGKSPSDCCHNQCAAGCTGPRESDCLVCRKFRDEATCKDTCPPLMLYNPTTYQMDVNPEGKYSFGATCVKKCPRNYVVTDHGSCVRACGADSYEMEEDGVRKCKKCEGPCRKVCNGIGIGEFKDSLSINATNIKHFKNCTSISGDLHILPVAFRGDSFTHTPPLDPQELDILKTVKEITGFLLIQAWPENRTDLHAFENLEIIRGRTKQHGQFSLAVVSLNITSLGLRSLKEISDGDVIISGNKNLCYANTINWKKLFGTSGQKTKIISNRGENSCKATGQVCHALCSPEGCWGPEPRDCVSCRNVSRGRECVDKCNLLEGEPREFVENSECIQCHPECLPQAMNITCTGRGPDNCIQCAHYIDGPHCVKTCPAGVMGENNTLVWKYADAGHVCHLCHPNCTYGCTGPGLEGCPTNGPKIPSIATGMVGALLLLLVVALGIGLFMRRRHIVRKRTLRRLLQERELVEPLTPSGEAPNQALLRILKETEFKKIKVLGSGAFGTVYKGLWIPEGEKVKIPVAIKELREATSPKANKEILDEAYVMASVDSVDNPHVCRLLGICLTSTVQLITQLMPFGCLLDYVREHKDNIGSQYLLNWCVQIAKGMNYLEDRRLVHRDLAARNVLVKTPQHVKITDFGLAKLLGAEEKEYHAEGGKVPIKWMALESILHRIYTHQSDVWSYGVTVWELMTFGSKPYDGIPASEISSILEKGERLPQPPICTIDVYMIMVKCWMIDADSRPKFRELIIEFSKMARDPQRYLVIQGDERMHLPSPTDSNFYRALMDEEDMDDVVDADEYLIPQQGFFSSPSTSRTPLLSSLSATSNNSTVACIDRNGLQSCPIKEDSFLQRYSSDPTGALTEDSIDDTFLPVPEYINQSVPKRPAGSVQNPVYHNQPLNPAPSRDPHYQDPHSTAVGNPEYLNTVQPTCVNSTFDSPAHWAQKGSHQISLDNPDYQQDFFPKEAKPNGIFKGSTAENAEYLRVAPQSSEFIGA
T6 sequence (P00533 with tags, fused parts or gaps DUP771-773): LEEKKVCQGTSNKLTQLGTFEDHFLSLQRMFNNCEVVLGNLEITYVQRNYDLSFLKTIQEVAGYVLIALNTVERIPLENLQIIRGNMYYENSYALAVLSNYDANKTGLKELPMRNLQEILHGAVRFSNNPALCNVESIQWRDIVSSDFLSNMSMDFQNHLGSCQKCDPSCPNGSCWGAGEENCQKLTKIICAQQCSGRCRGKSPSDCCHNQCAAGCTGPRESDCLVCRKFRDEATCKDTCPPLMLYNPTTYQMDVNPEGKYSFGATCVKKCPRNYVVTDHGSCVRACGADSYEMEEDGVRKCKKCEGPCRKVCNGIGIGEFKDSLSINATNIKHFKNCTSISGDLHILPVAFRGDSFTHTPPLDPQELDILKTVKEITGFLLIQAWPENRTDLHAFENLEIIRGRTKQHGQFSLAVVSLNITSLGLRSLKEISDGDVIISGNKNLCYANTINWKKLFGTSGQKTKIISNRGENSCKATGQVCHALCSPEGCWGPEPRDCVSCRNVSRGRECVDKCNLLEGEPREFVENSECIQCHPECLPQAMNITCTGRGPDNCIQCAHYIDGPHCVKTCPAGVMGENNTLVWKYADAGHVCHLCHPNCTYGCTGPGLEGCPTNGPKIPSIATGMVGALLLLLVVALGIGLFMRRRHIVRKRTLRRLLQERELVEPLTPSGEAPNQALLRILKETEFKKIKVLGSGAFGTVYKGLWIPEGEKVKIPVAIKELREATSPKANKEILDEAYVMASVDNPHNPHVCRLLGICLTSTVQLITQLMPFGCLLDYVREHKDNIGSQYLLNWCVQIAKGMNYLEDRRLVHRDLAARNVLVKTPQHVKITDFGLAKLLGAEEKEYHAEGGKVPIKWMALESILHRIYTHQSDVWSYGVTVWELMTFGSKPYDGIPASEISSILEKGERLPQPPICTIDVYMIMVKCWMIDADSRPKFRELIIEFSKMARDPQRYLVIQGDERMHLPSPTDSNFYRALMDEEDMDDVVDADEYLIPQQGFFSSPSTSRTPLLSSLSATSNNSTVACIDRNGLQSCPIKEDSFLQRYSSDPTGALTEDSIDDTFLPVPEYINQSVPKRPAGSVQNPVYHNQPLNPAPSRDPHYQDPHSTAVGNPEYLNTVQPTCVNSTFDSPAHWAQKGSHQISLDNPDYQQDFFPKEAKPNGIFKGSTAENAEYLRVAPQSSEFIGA

With `C=CC(=O)Nc1cc2c(Nc3ccc(OCc4ccccn4)c(Cl)c3)ncnc2cc1OCCN(C)CC` [compound 32], the IC50 is 300 to 500 nM in assay [1]; 20 to 30 nM in [2]; below 5 nM in assay [3] (setting [15]); at most 5 nM in assay [3] (setting [16]); 10 to 20 nM in [4]; 50 to 100 nM in assay [5]. In addition, the IC50 in assay [6] was 300 to 500 nM; in assay [7], 20 to 30 nM; in [8], below 5 nM; in assay [9], 10 to 20 nM; in assay [10], 50 to 100 nM.

Consider `C=CC(=O)Nc1cc2c(Nc3ccc(OCc4ccccn4)c(Cl)c3)ncnc2cc1OCCN1CC(F)C1` [compound 34], for which the IC50 in assay [1] was 500 to 1000 nM; in assay [2], 30 to 50 nM; in [3] (setting [15]), 10 to 20 nM; in assay [3] (setting [16]) it was at most 20 nM; in assay [4] it was 10 to 20 nM; in assay [5] it was 50 to 100 nM. The IC50 in assay [6] fell in the range of 500 to 1000 nM; in [7] it was 30 to 50 nM; in [8], 10 to 20 nM; in assay [9] it was 10 to 20 nM; in assay [10] it was 50 to 100 nM.

For the molecule `C=CC(=O)Nc1cc2c(Nc3ccc(OCc4ccccn4)c(Cl)c3)ncnc2cc1OCCN1CC2(COC2)C1` [compound 38], the IC50 is 300 to 500 nM in assay [1]; 30 to 50 nM in assay [2]; 5 to 10 nM in assay [3] (setting [15]); at most 10 nM in [3] (setting [16]); 20 to 30 nM in assay [4]; 50 to 100 nM in [5]. Besides, the IC50 lay in the range of 300 to 500 nM in [6]; 30 to 50 nM in assay [7]; 5 to 10 nM in assay [8]; 20 to 30 nM in assay [9]; 50 to 100 nM in [10].

Regarding `C=CC(=O)Nc1cc2c(Nc3ccc(OCc4ccccn4)c(Cl)c3)ncnc2cc1C#CC(C)(C)N1CCN(C)CC1` [compound 65], the IC50 is 500 to 1000 nM in assay [1]; 20 to 30 nM in assay [2]; 10 to 20 nM in assay [3] (setting [15]); at most 20 nM in assay [3] (setting [16]); 10 to 20 nM in assay [4]; 50 to 100 nM in [5]. For the same molecule, the IC50 fell in the range of 500 to 1000 nM in assay [6]; 20 to 30 nM in assay [7]; 10 to 20 nM in [8]; 10 to 20 nM in assay [9]; 50 to 100 nM in [10].

For `CC#CC(=O)Nc1cc2c(Nc3ccc(OCc4ccccn4)c(Cl)c3)ncnc2cc1OC1CCN(C)C1` (stereo not shown) [compound 67], the IC50 is 100 to 200 nM in assay [1]; 20 to 30 nM in assay [2]; 5 to 10 nM in [3] (setting [15]); at most 10 nM in assay [3] (setting [16]); 10 to 20 nM in assay [4]; 50 to 100 nM in assay [5]. The IC50 lay in the range of 100 to 200 nM in [6]; 20 to 30 nM in [7]; 5 to 10 nM in assay [8]; 10 to 20 nM in assay [9]; 50 to 100 nM in assay [10].

Consider `C=CC(=O)Nc1cc2c(Nc3ccc(OCc4ccccn4)c(Cl)c3)ncnc2cc1OCCCN1CCN(C)CC1` [compound 69], for which the IC50 in assay [1] was in the range of 300 to 500 nM; in assay [2] it was 10 to 20 nM; in assay [11], 20 to 30 nM; in assay [12], 20 to 30 nM; in assay [4] it was 10 to 20 nM; in assay [5], 20 to 30 nM. Moreover, the IC50 in [6] was 300 to 500 nM; in [7], 10 to 20 nM; in assay [13], 20 to 30 nM; in [14] it was 20 to 30 nM; in assay [9] it was 10 to 20 nM; in [10], 20 to 30 nM.

For the molecule `CC#CC(=O)Nc1cc2c(Nc3ccc(OCc4ccccn4)c(Cl)c3)ncnc2cc1OCCN1CCN(C)CC1` [compound 70], the IC50 in [1] fell in the range of 50 to 100 nM; in assay [2] it was 10 to 20 nM; in assay [11] it was 50 to 100 nM; in assay [12], 30 to 50 nM; in assay [4], 5 to 10 nM; in assay [5] it was 5 to 10 nM. Moreover, the IC50 lay in the range of 50 to 100 nM in [6]; 10 to 20 nM in [7]; 50 to 100 nM in assay [13]; 30 to 50 nM in [14]; 5 to 10 nM in [9]; 5 to 10 nM in assay [10].

As for `C=CC(=O)Nc1cc2c(Nc3ccc(OCc4ccccn4)c(Cl)c3)ncnc2cc1C#CC(C)(C)N1CCCC1` [compound 84, N-(4-((3-chloro-4-(pyridin-2-ylmethoxy)phenyl)amino)-7-(3-methyl-3-(pyrrolidin-1-yl)but-1-yn-1-yl)quinazolin-6-yl)acrylamide], the IC50 is 500 to 1000 nM in [1]; 20 to 30 nM in assay [2]; 50 to 100 nM in assay [11]; 50 to 100 nM in [12]; 5 to 10 nM in assay [4]; 30 to 50 nM in assay [5]. The IC50 in [6] was in the range of 500 to 1000 nM; in [7], 20 to 30 nM; in [13] it was 50 to 100 nM; in [14] it was 50 to 100 nM; in [9] it was 5 to 10 nM; in [10], 30 to 50 nM.

As to `C=CC(=O)Nc1cc2c(Nc3ccc(OCc4ccccn4)c(Cl)c3)ncnc2cc1C#C[C@H]1CCN(C)C1` [compound 85, N-(4-((3-chloro-4-(pyridin-2-ylmethoxy)phenyl)amino)-7-((1-methylpyrrolidin-3-yl)ethynyl)quinazolin-6-yl)acrylamide], the IC50 fell in the range of 200 to 300 nM in [1]; 20 to 30 nM in [2]; 20 to 30 nM in assay [11]; 20 to 30 nM in assay [12]; 5 to 10 nM in [4]; 30 to 50 nM in assay [5]. Besides, the IC50 in assay [6] was 200 to 300 nM; in assay [7] it was 20 to 30 nM; in [13], 20 to 30 nM; in assay [14], 20 to 30 nM; in [9], 5 to 10 nM; in [10], 30 to 50 nM.

Consider `C=CC(=O)Nc1cc2c(Nc3ccc(OCc4ccccn4)c(Cl)c3)ncnc2cc1OCCC1(N(C)C)CC1` [compound 102, N-(4-((3-chloro-4-(pyridin-2-ylmethoxy)phenyl)amino)-7-(2-(1-(dimethylamino)cyclopropyl)ethoxy)quinazolin-6-yl)acrylamide], for which the IC50 in [1] lay in the range of 500 to 1000 nM; in assay [2], 30 to 50 nM; in assay [11], 50 to 100 nM; in [12], 30 to 50 nM; in [4] it was 20 to 30 nM; in assay [5], 50 to 100 nM. The IC50 in assay [6] lay in the range of 500 to 1000 nM; in assay [7] it was 30 to 50 nM; in assay [13], 50 to 100 nM; in assay [14], 30 to 50 nM; in [9] it was 20 to 30 nM; in assay [10] it was 50 to 100 nM.
